This passage reports IC50 results from patent US7125877B2, “Benzimidazole derivatives” (Banyu Pharmaceutical Co., Ltd., priority 2002, dated 2006).

In assay [1] the target is T1, nociceptin receptor ORL1 (Homo sapiens, UniProt P41146).
T1 construct: expressed in transfected cells
Kind of assay: Antagonism against nociceptin-elicited G protein activation (GTPγ[35S] binding, CHO/ORL1 membranes). Format: biochemical. As to conditions: 50 nM nociceptin, 200 pM GTPγ[35S], CHO/ORL1 membrane, 25° C. for 150 minutes. Here is the method: Pharmacological Test Example 2 (Antagonism Against Nociceptin-elicited G Protein Activation)
CHO cells which stably represented a nociceptin receptor ORL1 were used to investigate the action of each tested compound against nociceptin-elicited G protein activation. A membrane prepared from the CHO/ORL1 cells, 50 nM nociceptin, 200 pM GTPγ[^35S] (NEN), 1.5 mg Wheatgerm agglutinin SPA beads (Amersham Pharmacia) and each of the tested compounds were mixed in a GDP buffer (20 mM Hepes, 100 mM sodium chloride, 10 mM magnesium chloride, 1 mM EDTA, 5 μM GDP, pH 7.4) and incubated at 25° C. for 150 minutes, and then the radioactivity was determined. The antagonism against nociceptin-elicited G protein activation was shown by the 50% inhibition concentration (IC50 value) of each tested compound against GTPγ[^35S] binding.
On the technique in general: GTPγS is a poorly hydrolysed GTP analogue; its binding reports G protein activation.

Assay [2] deals with T1, nociceptin receptor ORL1. Kind of assay: Nociceptin receptor binding inhibition assay ([125I]Tyr14-Nociceptin, SPA, CHO/ORL1 membranes). As to conditions: 50 pM [125I]Tyr14-Nociceptin, CHO/ORL1 membrane, 37° C. for 60 minutes; read-out: IC50 value, nociceptin receptor binding inhibition action. As for the experimental part:
Pharmacological Test Example 1 (Nociceptin Receptor Binding Inhibition Assay)
cDNA which codes a human nociceptin receptor gene was cloned into an expression vector pCR3 (Invitrogen) to prepare pCR3/ORL1. Next, pCR3/ORL1 was transfected in CHO cells using a transfectam (Nippongene) to obtain a stable expression strain (CHO/ORL1 cells) having resistance against 1 mg/ml G418. Membrane fractions were prepared from this stable expression strain to carry out a receptor binding assay.
The membrane of 11 μg, 50 pM [^125I] Tyr^14-Nociceptin (Amersham Pharmacia), 1 mg Wheatgerm agglutinin SPA beads (PVT based; Amersham Pharmacia) and each test compound were suspended in an NC buffer (50 mM Hepes, 10 mM sodium chloride, 1 mM magnesium chloride, 2.5 mM calcium chloride, 0.1% BSA, 0.025% bacitracin, pH 7.4) and incubated at 37° C. for 60 minutes, and then the radioactivity was determined. The binding activity to the nociceptin receptor was indicated by the 50% inhibition concentration (IC50 value) of [^125I]Tyr^14-Nociceptin binding by each compound of the present invention.

Structures can show the parent of a compound that is named as a salt.

T1 sequence (P41146 whole entry): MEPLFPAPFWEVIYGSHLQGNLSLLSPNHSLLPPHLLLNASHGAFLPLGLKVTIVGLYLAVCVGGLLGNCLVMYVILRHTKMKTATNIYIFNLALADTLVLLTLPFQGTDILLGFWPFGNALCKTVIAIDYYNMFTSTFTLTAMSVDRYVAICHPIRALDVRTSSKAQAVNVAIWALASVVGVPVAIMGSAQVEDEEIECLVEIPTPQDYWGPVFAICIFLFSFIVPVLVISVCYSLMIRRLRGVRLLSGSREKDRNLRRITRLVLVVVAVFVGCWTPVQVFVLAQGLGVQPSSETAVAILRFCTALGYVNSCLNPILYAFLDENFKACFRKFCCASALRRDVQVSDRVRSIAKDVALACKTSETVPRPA

As to `CCN1CCN(c2cc3[nH]c(C(=O)[C@]4(C)CC[C@@H](NC(=O)OC)CC4)nc3cc2Cl)C(C)C1` (single isomer, unassigned) [Example 1(2S*), 5-chloro-6-[4-ethyl-(2S*)-2-methylpiperazin-1-yl]-2-[(1,4-trans)-4-methoxycarbonylamino-1-methylcyclohexylcarbonyl]benzimidazole], the IC50 on nociceptin receptor ORL1 [1] was 0.82 nM; at nociceptin receptor ORL1 [2], 0.51 nM.

Consider `COC[C@]1(C(=O)c2nc3cc(C)c(N4CCN5CCC[C@H]5C4)cc3[nH]2)CC[C@](C)(O)CC1` [Example 53, 6-[(S)-1,4-ziazabicyclo[4.3.0]nonan-4-yl]-2-[(1,4-trans)-4-hydroxy-1-methoxymethyl-4-methylcyclohexylcarbonyl]-5-methylbenzimidazole], for which the IC50 at nociceptin receptor ORL1 [1] worked out at 1 nM; at nociceptin receptor ORL1 [2], 0.55 nM.

As for `CCN1CCN(c2cc3[nH]c(C(=O)N(C)C4CCCCC4)nc3cc2Cl)C(C)C1` (stereo not drawn) [Example 39(2S*)], the IC50 at nociceptin receptor ORL1 [2] was found to be 29 nM.

For `CCN1CCN(c2cc3[nH]c(C(=O)[C@]4(CC)CC[C@@H](NC(=O)OC)CC4)nc3cc2C)C(C)C1` (single isomer, unassigned) [Example 47(2S*), 2-[(1,4-trans)-1-ethyl-4-(methoxycarbonylamino)-cyclohexylcarbonyl]-6-[4-ethyl-(2S*)-2-methylpiperazin-1-yl]-5-methylbenzimidazole-fumaric acid salt], the IC50 on nociceptin receptor ORL1 [1] worked out at 0.36 nM; at nociceptin receptor ORL1 [2], 0.22 nM.

For `CCN1CCN(c2cc3[nH]c(C(=O)[C@]4(C)CC[C@@H](O)CC4)nc3cc2Cl)C(C)C1` (single isomer, unassigned) [Example 24(2S*), 5-chloro-6-[4-ethyl-(2S*)-2-methylpiperazin-yl]-2-[(1,4-trans)-4-hydroxy-1-methylcyclohexylcarbonyl]benzimidazole], the IC50 turned out to be 2.8 nM at nociceptin receptor ORL1 [1] and 2.1 nM at nociceptin receptor ORL1 [2].

As for `COC(=O)N[C@H]1CC[C@](C)(C(=O)c2nc3cc(C)c(N4CCN(CCO)CC4C)cc3[nH]2)CC1` (single isomer, unassigned) [Example 11(2S*), 6-[4-(2-hydroxyethyl)-(2S*)-2-methylpiperazin-1-yl]-2-[(1,4-trans)-4-methoxycarbonylamino-1-methylcyclohexylcarbonyl]-5-methylbenzimidazole-fumaric acid salt], the IC50 on nociceptin receptor ORL1 [1] is 0.63 nM; at nociceptin receptor ORL1 [2], 0.99 nM.

`CCN1CCN(c2cc3[nH]c(C(=O)[C@]4(CC)CC[C@@H](NC(=O)OC)CC4)nc3cc2Cl)C(C)C1` (single isomer, unassigned) [Example 15(2S*), 5-chloro-2-[(1,4-trans)-1-ethyl-4-(methoxycarbonylamino)-cyclohexylcarbonyl]-6-[4-ethyl-(2S*)-2-methylpiperazin-1-yl]benzimidazole-fumaric acid salt]: the IC50 at nociceptin receptor ORL1 [1] turned out to be 0.42 nM; on nociceptin receptor ORL1 [2], 0.19 nM.

Regarding `CCN1CCN(c2cc3[nH]c(C(=O)C4(C)CCN(C(C)=O)CC4)nc3cc2C)C(C)C1` (single isomer, unassigned) [Example 27(2S*), 2-(1-acetyl-4-methylpiperidinyl-4-carbonyl)-6-[4-ethyl-(2S*)-2-methylpiperazin-1-yl]-5-methylbenzimidazole], the IC50 at nociceptin receptor ORL1 [1] turned out to be 1.5 nM; at nociceptin receptor ORL1 [2], 1.9 nM.

Take `COC(=O)N[C@H]1CC[C@](C)(C(=O)c2nc3cc(Cl)c(N4CCN(CCO)CC4C)cc3[nH]2)CC1` (single isomer, unassigned) [Example 6(2S*), 5-chloro-6-[4-(2-hydroxyethyl)-(2S*)-2-methylpiperazin-1-yl]-2-[(1,4-trans)-4-methoxycarbonylamino-1-methylcyclohexylcarbonyl]benzimidazole-fumaric acid salt]: the values for the IC50 on nociceptin receptor ORL1 [1] and on nociceptin receptor ORL1 [2] were 0.92 nM and 0.41 nM, respectively.

Turning to `CCN1CCN(c2cc3[nH]c(C(=O)[C@]4(C)CC[C@@H](NC(=O)OC)CC4)nc3cc2C)C(C)C1` (single isomer, unassigned) [Example 2(2S*), 6-[4-ethyl-(2S*)-2-methylpiperazin-1-yl]-2-[(1,4-trans)-4-methoxycarbonylamino-1-methylcyclohexylcarbonyl]-5-methylbenzimidazole], the IC50 at nociceptin receptor ORL1 [1] worked out at 0.63 nM; at nociceptin receptor ORL1 [2] it was 0.2 nM.

For `CCN1CCN(c2cc3[nH]c(C(=O)[C@]4(C)CC[C@@](C)(O)CC4)nc3cc2Cl)CC1` [Example 51, 5-chloro-2-[(1,4-trans)-1,4-dimethyl-4-hydroxycyclohexylcarbonyl]-6-(4-ethylpiperazin-1-yl) benzimidazole], the IC50 worked out at 0.65 nM at nociceptin receptor ORL1 [1] and 1.4 nM on nociceptin receptor ORL1 [2].

Broadly, the IC50 is the midpoint of a concentration-inhibition curve.
